Results: patent US20230077362A1 (CORTEVA AGRISCIENCE LLC, priority 2019, published 2023)
Where two headings read alike, the source gives them in different places.

How the values were obtained:
[1] = test system: Cabbage Looper (Trichoplusia ni) ("CL"), second instar larvae; test: Bioassay on cabbage looper (CL), 128-well diet tray assay; format: in vivo; settings: for pest or weed control at 50 µg/cm2: Trichoplusia ni; for CL rating: Table ABC, species CL, C = not tested, D = no activity noticed
How it was run: (§1)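 Mortality (%) is scored well by well after five to seven days at 25° C. on a 14:10 light:dark regime. The value given is the mean of eight wells.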

[2] = test system: Beet Armyworm (Spodoptera exigua) ("BAW"), second instar larvae; test: Bioassay on beet armyworm (BAW), 128-well diet tray assay; format: in vivo; settings: for pest or weed control at 50 µg/cm2: Spodoptera exigua; for BAW rating: Table ABC, species BAW, C = not tested, D = no activity noticed
How it was run: as §1

[3] = read-out: CL (Biological Results, rating)
[4] = read-out: BAW (Biological Results, rating)

| Structure (SMILES) | pest or weed control at 50 µg/cm2 [1, 3] | pest or weed control at 50 µg/cm2 [2, 4] | other results |
| --- | --- | --- | --- |
| CCOCc1ccc(C)cc1N1C(=O)CS/C1=N\C(=O)Nc1ccc(-c2ncn(-c3ccc(OC(F)(F)F)cc3)n2)cc1C [Compound J206, (Z)-1-(3-(2-(Ethoxymethyl)-5-methylphenyl)-4-oxothiazolidin-2-ylidene)-3-(2-methyl-4-(1-(4-(trifluoromethoxy)phenyl)-1H-1,2,4-triazol-3-yl)phenyl)urea] | 50 to 100% | 50 to 100% |  |
| COc1ccc(C(C)C)c(N2C(=O)CS/C2=N\C(=O)Nc2ccc(-c3ncn(-c4ccc(C(F)(F)F)cc4)n3)c(C)c2)c1 [Compound J5, (Z)-1-(3-(2-Isopropyl-5-methoxyphenyl)-4-oxothiazolidin-2-ylidene)-3-(3-methyl-4-(1-(4-(trifluoromethyl)phenyl)-1H-1,2,4-triazol-3-yl)phenyl)urea] | 50 to 100% | 50 to 100% |  |
| CCN(CC)c1ccc(C(C)C)c(N2C(=O)CS/C2=N\C(=O)Nc2ccc(-c3ncn(-c4ccc(OC(F)(F)F)cc4)n3)cc2F)c1 [Compound J69, (Z)-1-(3-(5-(diethylamino)-2-isopropylphenyl)-4-oxothiazolidin-2-ylidene)-3-(2-fluoro-4-(1-(4-(trifluoromethoxy)phenyl)-1H-1,2,4-triazol-3-yl)phenyl)urea] | 50 to 100% | 50 to 100% |  |
| Cc1ccc(COCC(F)F)c(N2C(=O)CS/C2=N\C(=O)Nc2ccc(-n3cnc(-c4ccc(OC(F)(F)F)cc4)n3)cc2F)c1 [Compound J692, (Z)-1-(3-(2-((2,2-Difluoroethoxy)methyl)-5-methylphenyl)-4-oxothiazolidin-2-ylidene)-3-(2-fluoro-4-(3-(4-(trifluoromethoxy)phenyl)-1H-1,2,4-triazol-1-yl)phenyl)urea] |  |  | pest or weed control at 50 µg/cm2 ([1]; read-out: CL rating): 50 to 100%; pest or weed control at 50 µg/cm2 ([2]; read-out: BAW rating): 50 to 100% |
| COc1ccc(CC(F)(F)F)c(N2C(=O)CS/C2=N\C(=O)NCC(F)c2ccc(-c3ncn(-c4ccc(OC(F)(F)F)cc4)n3)cc2C)c1 (stereo not shown) [Compound H16] | 50 to 100% | 50 to 100% |  |
| CN(C)c1ccc(OCCC(F)(F)F)c(N2C(=O)CS/C2=N\C(=O)Nc2ccc(-c3ncn(-c4ccc(OC(F)(F)F)cc4)n3)cc2)c1 [Compound J321, (Z)-1-(3-(5-(Dimethylamino)-2-(3,3,3-trifluoropropoxy)phenyl)-4-oxothiazolidin-2-ylidene)-3-(4-(1-(4-(trifluoromethoxy)phenyl)-1H-1,2,4-triazol-3-yl)phenyl)urea] | 50 to 100% | 50 to 100% |  |
| Cc1ccc(COCC(F)(F)F)c(N2C(=O)CS/C2=N\C(=O)Nc2ccc(-c3ncn(-c4ccc(OC(F)(F)C(F)(F)F)cc4)n3)cc2F)c1 [Compound J662] |  |  | CL rating [1]: A (50-100); BAW rating [2]: A (50-100) |
| Cc1ccc(COCC(Cl)(Cl)Cl)c(N2C(=O)CS/C2=N\C(=O)Nc2ccc(-c3ncn(-c4ccc(OC(F)(F)F)cc4)n3)cc2F)c1 [Compound J452] |  |  | CL rating [1]: A (50-100); BAW rating [2]: A (50-100) |
| COC(C)c1ccc(C)cc1N1C(=O)CS/C1=N\C(=O)Nc1ccc(-c2cn(-c3ccc(C(F)(F)F)cc3)cn2)cc1 (stereo not shown) [Compound J513, (Z)-1-(3-(2-(1-Methoxyethyl)-5-methylphenyl)-4-oxothiazolidin-2-ylidene)-3-(4-(1-(4-(trifluoromethyl)phenyl)-1H-imidazol-4-yl)phenyl)urea] |  |  | pest or weed control at 50 µg/cm2 ([1]; read-out: CL rating): 50 to 100%; pest or weed control at 50 µg/cm2 ([2]; read-out: BAW rating): 50 to 100% |
| Cc1ccc(C(C)C)c(N2C(=O)CS/C2=N\C(=O)Nc2ccc(-c3ncn(-c4ccc(C(F)(F)F)cn4)n3)cc2Cl)c1 [Compound J295, (Z)-1-(2-Chloro-4-(1-(5-(trifluoromethyl)pyridin-2-yl)-1H-1,2,4-triazol-3-yl)phenyl)-3-(3-(2-isopropyl-5-methylphenyl)-4-oxothiazolidin-2-ylidene)urea] | 50 to 100% | 50 to 100% |  |
| CCOCc1ccc(C)cc1N1C(=O)CS/C1=N\C(=O)Nc1ccc(-c2ncn(-c3cc(C(F)(F)F)cc(C(F)(F)F)c3)n2)cc1F [Compound J761] |  |  | CL rating [1]: A (50-100); BAW rating [2]: A (50-100) |
| Cc1ccc(COCC(F)(F)F)c(N2C(=O)CS/C2=N\C(=O)Nc2ccc(-c3ncn(-c4ccc(OC(F)(F)F)cn4)n3)cc2C#N)c1 [Compound J265, (Z)-1-(2-Cyano-4-(1-(5-(trifluoromethoxy)pyridin-2-yl)-1H-1,2,4-triazol-3-yl)phenyl)-3-(3-(5-methyl-2-((2,2,2-trifluoroethoxy)methyl)phenyl)-4-oxothiazolidin-2-ylidene)urea] | 50 to 100% | 50 to 100% |  |
| Cc1ccc(COCC(F)(F)F)c(N2C(=O)CS/C2=N\C(=O)Nc2ccc(-c3ncn(-c4ccc(C(F)(F)F)cn4)n3)cc2C(F)(F)F)c1 [Compound J304, (Z)-1-(3-(5-Methyl-2-((2,2,2-trifluoroethoxy)methyl)phenyl)-4-oxothiazolidin-2-ylidene)-3-(2-(trifluoromethyl)-4-(1-(5-(trifluoromethyl)pyridin-2-yl)-1H-1,2,4-triazol-3-yl)phenyl)urea] | 50 to 100% | 50 to 100% |  |
| COCc1ccc(N(C)C)cc1N1C(=O)CS/C1=N\C(=O)Nc1ccc(-c2nnc(-c3ccc(OC(F)(F)F)cc3)o2)cc1F [Compound J612, (Z)-1-(3-(5-(Dimethylamino)-2-(methoxymethyl)phenyl)-4-oxothiazolidin-2-ylidene)-3-(2-fluoro-4-(5-(4-(trifluoromethoxy)phenyl)-1,3,4-oxadiazol-2-yl)phenyl)urea] |  |  | pest or weed control at 50 µg/cm2 ([1]; read-out: CL rating): 50 to 100%; pest or weed control at 50 µg/cm2 ([2]; read-out: BAW rating): 50 to 100% |
| Cc1ccc(C(C)C)c(N2C(=O)CS/C2=N\C(=O)Nc2ccc(-c3ncn(-c4ccc(C(F)(F)F)cn4)n3)cc2C(F)(F)F)c1 [Compound J301, (Z)-1-(3-(2-Isopropyl-5-methylphenyl)-4-oxothiazolidin-2-ylidene)-3-(2-(trifluoromethyl)-4-(1-(5-(trifluoromethyl)pyridin-2-yl)-1H-1,2,4-triazol-3-yl)phenyl)urea] | 50 to 100% | 50 to 100% |  |
| Cc1ccc(COCC(F)(F)F)c(N2C(=O)CS/C2=N\C(=O)Nc2ccc(-c3nnc(-c4ccc(OC(F)(F)F)cc4)s3)cc2F)c1 [Compound J500, (Z)-1-(2-Fluoro-4-(5-(4-(trifluoromethoxy)phenyl)-1,3,4-thiadiazol-2-yl)phenyl)-3-(3-(5-methyl-2-((2,2,2-trifluoroethoxy)methyl)phenyl)-4-oxothiazolidin-2-ylidene)urea] |  |  | pest or weed control at 50 µg/cm2 ([1]; read-out: CL rating): 50 to 100%; pest or weed control at 50 µg/cm2 ([2]; read-out: BAW rating): 50 to 100% |
| CN(C)c1ccc(C(F)(F)F)c(N2C(=O)CS/C2=N\C(=O)Nc2ccc(-c3ncn(-c4ccc(OC(F)(F)F)cc4)n3)cc2F)c1 [Compound J182, (Z)-1-(3-(5-(Dimethylamino)-2-(trifluoromethyl)phenyl)-4-oxothiazolidin-2-ylidene)-3-(2-fluoro-4-(1-(4-(trifluoromethoxy)phenyl)-1H-1,2,4-triazol-3-yl)phenyl)urea] | 50 to 100% | 50 to 100% |  |
| Cc1cc(-c2cn(-c3ccc(C(F)(F)F)cc3)cn2)ccc1NC(=O)/N=C1\SCC(=O)N1c1cc(N(C)C)ccc1C(C)C [Compound J524, (Z)-1-(3-(5-(Dimethylamino)-2-isopropylphenyl)-4-oxothiazolidin-2-ylidene)-3-(2-methyl-4-(1-(4-(trifluoromethyl)phenyl)-1H-imidazol-4-yl)phenyl)urea] |  |  | pest or weed control at 50 µg/cm2 ([1]; read-out: CL rating): 50 to 100%; pest or weed control at 50 µg/cm2 ([2]; read-out: BAW rating): 50 to 100% |
| O=C(/N=C1\SCC(=O)N1c1ccccc1N1CCCCC1)Nc1ccc(-c2ncn(-c3ccc(OC(F)(F)F)cc3)n2)cc1F [Compound J198, (Z)-1-(2-Fluoro-4-(1-(4-(trifluoromethoxy)phenyl)-1H-1,2,4-triazol-3-yl)phenyl)-3-(4-oxo-3-(2-(piperidin-1-yl)phenyl)thiazolidin-2-ylidene)urea] | 50 to 100% | 50 to 100% |  |
| Cc1ccc(C(C)C)c(N2C(=O)CS/C2=N\C(=O)Nc2ccc(-c3ncn(-c4ccc(OC(F)(F)F)cc4)n3)cc2Br)c1 [Compound J217, (Z)-1-(2-Bromo-4-(1-(4-(trifluoromethoxy)phenyl)-1H-1,2,4-triazol-3-yl)phenyl)-3-(3-(2-isopropyl-5-methylphenyl)-4-oxothiazolidin-2-ylidene)urea] | 50 to 100% | 50 to 100% |  |
| CCc1ccc(COCC(F)(F)F)c(N2C(=O)CS/C2=N\C(=O)Nc2ccc(-c3ncn(-c4ccc(OC(F)(F)F)cc4)n3)cc2C)c1 [Compound J641] |  |  | CL rating [1]: A (50-100); BAW rating [2]: A (50-100) |
| Cc1ccc(C(C)C)c(N2C(=O)CS/C2=N\C(=O)Nc2c(F)cc(-c3ncn(-c4ccc(OC(F)(F)F)cc4)n3)cc2F)c1 [Compound J78, (Z)-1-(2,6-Difluoro-4-(1-(4-(trifluoromethoxy)phenyl)-1H-1,2,4-triazol-3-yl)phenyl)-3-(3-(2-isopropyl-5-methylphenyl)-4-oxothiazolidin-2-ylidene)urea] | 50 to 100% | 50 to 100% |  |
| O=C(/N=C1\SCC(=O)N1c1cc(F)ccc1COCC(F)(F)F)Nc1ccc(-c2ncn(-c3ccc(S(=O)(=O)C(F)(F)F)cc3)n2)cc1F [Compound J670, (Z)-1-(3-(5-Fluoro-2-((2,2,2-trifluoroethoxy)methyl)phenyl)-4-oxothiazolidin-2-ylidene)-3-(2-fluoro-4-(1-(4-((trifluoromethyl)sulfonyl)phenyl)-1H-1,2,4-triazol-3-yl)phenyl)urea] |  |  | pest or weed control at 50 µg/cm2 ([1]; read-out: CL rating): 50 to 100%; pest or weed control at 50 µg/cm2 ([2]; read-out: BAW rating): 50 to 100% |
